SMILES strings stand for the structures. Read-outs that look alike come from different tables or passages of the source.

Common to all, as to assay: Inhibition assay, microfluidic LabChip (Nanosyn)
Format in all cases: biochemical

The target of experiment [1] is T1, CDK4-CYCLIND1 (Homo sapiens, UniProt P11802).
T1 construct: purchased Invitrogen
Conditions: read-out: CDK4 CyclinD1 IC50. On the procedure:
(§1) The reaction was terminated by the addition of EDTA. The plates were analyzed using a Caliper LabChip 3000.
(§2) Additional inhibition assays were performed as described above.

The target in experiment [2] is CDK1/B (Homo sapiens, UniProt P06493). As to conditions: Table 3a. As for the experimental part: as §1, §2
Experiment [3] deals with T2, CDK2-CYCLINA (Homo sapiens, UniProt P24941).
T2 construct: purchased Millipore
As for the experimental part: as §1, §2

Experiment [4] has as its target CDK7 CyclinH (Homo sapiens, UniProt P50613). On the procedure: as §1, §2
In experiment [5] the target is T3, CDK9-CYCLINT1 (Homo sapiens, UniProt P50750).
T3 construct: purchased Carna
On the procedure: as §1, §2

Experiment [6] addresses T4, CDK6-CYCLIND3 (Homo sapiens, UniProt Q00534).
T4 construct: purchased Carna
As to conditions: read-out: CDK6 CyclinD3 IC50. As for the experimental part: as §1, §2

T1 sequence (P11802 whole entry): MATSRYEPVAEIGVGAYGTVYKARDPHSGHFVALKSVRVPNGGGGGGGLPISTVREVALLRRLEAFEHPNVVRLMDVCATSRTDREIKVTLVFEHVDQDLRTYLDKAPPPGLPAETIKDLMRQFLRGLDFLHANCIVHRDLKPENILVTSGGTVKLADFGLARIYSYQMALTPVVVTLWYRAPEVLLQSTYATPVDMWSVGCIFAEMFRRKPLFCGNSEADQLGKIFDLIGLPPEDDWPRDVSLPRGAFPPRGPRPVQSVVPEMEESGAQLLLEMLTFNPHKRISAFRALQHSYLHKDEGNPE
T1 sequence (P24385 whole entry partner): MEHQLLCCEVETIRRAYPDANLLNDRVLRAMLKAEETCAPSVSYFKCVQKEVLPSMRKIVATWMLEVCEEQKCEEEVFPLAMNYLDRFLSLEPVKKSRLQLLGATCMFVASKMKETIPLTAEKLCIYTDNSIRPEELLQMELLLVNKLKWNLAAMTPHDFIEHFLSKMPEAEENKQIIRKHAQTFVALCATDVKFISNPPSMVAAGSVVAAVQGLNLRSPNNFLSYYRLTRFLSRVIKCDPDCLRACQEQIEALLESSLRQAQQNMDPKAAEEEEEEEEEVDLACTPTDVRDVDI
Chain of CDK1/B (P06493 whole entry): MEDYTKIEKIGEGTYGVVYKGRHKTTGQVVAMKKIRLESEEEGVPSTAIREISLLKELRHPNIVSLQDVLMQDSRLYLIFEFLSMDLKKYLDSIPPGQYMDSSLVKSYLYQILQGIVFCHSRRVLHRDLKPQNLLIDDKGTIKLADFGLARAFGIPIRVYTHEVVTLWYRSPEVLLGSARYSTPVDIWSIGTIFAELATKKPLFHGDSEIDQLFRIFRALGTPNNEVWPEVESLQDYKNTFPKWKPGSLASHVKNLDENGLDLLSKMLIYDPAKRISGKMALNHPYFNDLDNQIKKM
Chain of CDK1/B (P14635 whole entry partner): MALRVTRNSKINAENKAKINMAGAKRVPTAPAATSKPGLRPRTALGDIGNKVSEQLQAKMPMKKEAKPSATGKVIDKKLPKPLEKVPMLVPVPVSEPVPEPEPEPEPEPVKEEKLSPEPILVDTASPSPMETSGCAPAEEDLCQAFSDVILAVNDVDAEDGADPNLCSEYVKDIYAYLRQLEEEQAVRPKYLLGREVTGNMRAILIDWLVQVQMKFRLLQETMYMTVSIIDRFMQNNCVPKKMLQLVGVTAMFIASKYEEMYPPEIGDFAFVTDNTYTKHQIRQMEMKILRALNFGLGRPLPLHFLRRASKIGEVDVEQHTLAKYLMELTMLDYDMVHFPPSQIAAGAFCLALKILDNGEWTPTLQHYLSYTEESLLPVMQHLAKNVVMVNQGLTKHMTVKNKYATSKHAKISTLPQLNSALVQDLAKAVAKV
T3 sequence (P50750 whole entry): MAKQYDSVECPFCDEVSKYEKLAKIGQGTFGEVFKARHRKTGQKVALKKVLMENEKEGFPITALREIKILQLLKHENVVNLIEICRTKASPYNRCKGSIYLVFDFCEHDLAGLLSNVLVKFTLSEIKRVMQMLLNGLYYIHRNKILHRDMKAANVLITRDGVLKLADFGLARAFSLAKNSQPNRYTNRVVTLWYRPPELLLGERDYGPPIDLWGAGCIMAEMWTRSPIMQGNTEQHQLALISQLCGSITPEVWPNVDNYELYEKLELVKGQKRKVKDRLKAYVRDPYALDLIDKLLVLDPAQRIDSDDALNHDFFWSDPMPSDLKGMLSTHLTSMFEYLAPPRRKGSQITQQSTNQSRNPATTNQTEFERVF
T3 sequence (O60563 whole entry partner): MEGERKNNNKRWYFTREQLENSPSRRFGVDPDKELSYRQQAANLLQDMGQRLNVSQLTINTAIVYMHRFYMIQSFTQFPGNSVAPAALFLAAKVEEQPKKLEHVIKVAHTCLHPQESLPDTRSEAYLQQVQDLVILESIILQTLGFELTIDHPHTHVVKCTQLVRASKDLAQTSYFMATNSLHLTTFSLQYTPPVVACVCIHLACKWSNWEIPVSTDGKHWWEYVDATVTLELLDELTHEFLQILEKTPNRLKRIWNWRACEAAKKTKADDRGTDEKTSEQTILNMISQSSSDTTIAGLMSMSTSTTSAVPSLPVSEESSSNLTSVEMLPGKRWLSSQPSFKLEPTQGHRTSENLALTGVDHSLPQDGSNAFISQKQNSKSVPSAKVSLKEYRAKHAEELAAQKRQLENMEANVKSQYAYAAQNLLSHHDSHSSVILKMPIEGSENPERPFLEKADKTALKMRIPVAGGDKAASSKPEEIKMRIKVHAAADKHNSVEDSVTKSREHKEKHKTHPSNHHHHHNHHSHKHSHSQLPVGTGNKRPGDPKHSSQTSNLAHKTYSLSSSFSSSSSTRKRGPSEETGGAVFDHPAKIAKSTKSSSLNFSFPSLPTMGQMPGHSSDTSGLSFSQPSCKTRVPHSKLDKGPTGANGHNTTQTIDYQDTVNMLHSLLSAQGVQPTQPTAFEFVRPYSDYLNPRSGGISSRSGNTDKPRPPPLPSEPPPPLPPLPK
Chain of CDK7 CyclinH (P50613 whole entry): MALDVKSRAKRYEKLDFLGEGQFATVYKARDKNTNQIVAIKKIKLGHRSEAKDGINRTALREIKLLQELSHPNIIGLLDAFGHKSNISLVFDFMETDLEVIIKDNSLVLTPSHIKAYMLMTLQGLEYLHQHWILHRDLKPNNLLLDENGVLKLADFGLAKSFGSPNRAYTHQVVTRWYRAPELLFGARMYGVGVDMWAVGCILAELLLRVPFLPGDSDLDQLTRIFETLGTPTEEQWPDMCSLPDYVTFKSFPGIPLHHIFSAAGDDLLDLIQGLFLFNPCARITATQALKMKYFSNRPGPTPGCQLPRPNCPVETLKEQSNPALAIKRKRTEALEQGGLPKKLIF
Chain of CDK7 CyclinH (P51946 whole entry partner): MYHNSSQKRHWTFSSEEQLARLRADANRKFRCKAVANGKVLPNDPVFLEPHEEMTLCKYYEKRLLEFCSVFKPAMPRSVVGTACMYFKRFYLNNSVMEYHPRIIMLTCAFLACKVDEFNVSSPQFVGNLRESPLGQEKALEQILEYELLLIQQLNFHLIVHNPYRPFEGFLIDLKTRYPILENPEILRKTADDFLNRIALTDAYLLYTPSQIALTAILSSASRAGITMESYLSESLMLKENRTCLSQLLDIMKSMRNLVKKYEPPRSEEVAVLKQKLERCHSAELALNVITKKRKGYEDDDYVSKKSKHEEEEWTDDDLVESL
Chain of CDK7 CyclinH (P51948 whole entry partner): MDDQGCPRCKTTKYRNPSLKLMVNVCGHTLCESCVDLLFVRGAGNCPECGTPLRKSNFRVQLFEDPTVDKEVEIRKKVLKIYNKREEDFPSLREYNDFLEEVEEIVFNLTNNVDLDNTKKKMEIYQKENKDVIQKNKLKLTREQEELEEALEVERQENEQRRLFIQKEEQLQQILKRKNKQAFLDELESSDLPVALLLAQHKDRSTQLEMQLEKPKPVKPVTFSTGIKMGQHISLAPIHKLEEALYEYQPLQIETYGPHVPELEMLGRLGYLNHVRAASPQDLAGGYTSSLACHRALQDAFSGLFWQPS
T4 sequence (Q00534 whole entry): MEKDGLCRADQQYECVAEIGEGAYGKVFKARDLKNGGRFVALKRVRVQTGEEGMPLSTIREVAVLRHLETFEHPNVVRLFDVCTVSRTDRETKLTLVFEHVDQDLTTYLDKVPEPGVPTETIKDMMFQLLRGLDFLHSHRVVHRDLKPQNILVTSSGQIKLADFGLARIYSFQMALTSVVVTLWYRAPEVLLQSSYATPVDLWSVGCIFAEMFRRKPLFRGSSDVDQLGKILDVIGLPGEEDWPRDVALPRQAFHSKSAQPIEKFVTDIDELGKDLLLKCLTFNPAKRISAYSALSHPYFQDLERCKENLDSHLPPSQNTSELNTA
T4 sequence (P30281 whole entry partner): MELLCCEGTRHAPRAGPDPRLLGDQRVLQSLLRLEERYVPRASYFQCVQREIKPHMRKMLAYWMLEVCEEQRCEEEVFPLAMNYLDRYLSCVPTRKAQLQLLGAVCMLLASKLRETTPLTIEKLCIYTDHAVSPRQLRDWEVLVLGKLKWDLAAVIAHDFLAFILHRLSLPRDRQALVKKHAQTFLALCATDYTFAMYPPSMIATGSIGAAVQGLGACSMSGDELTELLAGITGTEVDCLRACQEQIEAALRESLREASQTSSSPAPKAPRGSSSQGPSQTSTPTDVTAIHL

For orientation: IC50 means the midpoint of a concentration-inhibition curve. `CC(C)N1CCN(c2ccc(Nc3ncc4cc(C(=O)N(C)C)n(C56CC(C5)C6)c4n3)cc2)CC1` (single isomer, unassigned) [Compound A89, 7-(bicyclo[1.1.1]pentan-1-yl)-2-((4-(4-isopropylpiperazin-1-yl)phenyl)amino)-N,N-dimethyl-7H-pyrrolo[2,3-d]pyrimidine-6-carboxamide]: the IC50 in experiment [1] (Table 3a) was less than 0.0032 µM; in experiment [1] (Table 3b), less than 0.0032 µM; in experiment [2], 0.44 µM; in experiment [3] (Table 3a), 0.4 µM; in experiment [3] (Table 3b), 0.4 µM; in experiment [4] (Table 3a), 1.52 µM. For the same compound, the results for the half-maximal inhibitory concentration (IC50) in experiment [4] (Table 3b) and in experiment [5] (Table 3a) were 1.52 µM and 0.00406 µM, respectively.

As for `CN1CCC(c2ccc(Nc3ncc4cc(C(=O)N(C)C)n(C56CC(C5)C6)c4n3)cc2)CC1` [Compound A51, 7-(bicyclo[1.1.1]pentan-1-yl)-N,N-dimethyl-2-((4-(1-methylpiperidin-4-yl)phenyl)amino)-7H-pyrrolo[2,3-d]pyrimidine-6-carboxamide], the half-inhibitory concentration (IC50) in experiment [1] (Table 3a) turned out to be 0.00452 µM; in experiment [1] (Table 3b), 0.00452 µM; in experiment [2], 0.453 µM; in experiment [3] (Table 3a), 0.66 µM; in experiment [3] (Table 3b) it was 0.66 µM; in experiment [4] (Table 3a), 2.06 µM. Also, the IC50 in experiment [4] (Table 3b) stood at 2.06 µM; in experiment [5] (Table 3a), 0.00546 µM.

As to `CN(C)CCOc1ccc(Nc2ncc3cc(C(=O)N(C)C)n(C45CC(C4)C5)c3n2)cc1` [Compound A60, 7-(bicyclo[1.1.1]pentan-1-yl)-2-((4-(2-(dimethylamino)ethoxy)phenyl)amino)-N,N-dimethyl-7H-pyrrolo[2,3-d]pyrimidine-6-carboxamide], the IC50 in experiment [1] (Table 3a) amounted to 0.0079 µM; in experiment [1] (Table 3b), 0.0079 µM; in experiment [2], 0.955 µM; in experiment [3] (Table 3a), 0.8 µM; in experiment [3] (Table 3b) it was 0.8 µM; in experiment [4] (Table 3a) it was 3.42 µM. Besides, the IC50 was 3.42 µM in experiment [4] (Table 3b), less than 0.0032 µM in experiment [5] (Table 3a) and less than 0.0032 µM in experiment [5] (Table 3b).

Turning to `CN1CCN(C2CCN(c3ccc(Nc4ncc5cc(C(=O)N(C)C)n(C67CC(C6)C7)c5n4)cc3F)CC2)CC1` [Compound A68, 7-(bicyclo[1.1.1]pentan-1-yl)-2-((3-fluoro-4-(4-(4-methylpiperazin-1-yl)piperidin-1-yl)phenyl)amino)-N,N-dimethyl-7H-pyrrolo[2,3-d]pyrimidine-6-carboxamide], the half-maximal inhibitory concentration (IC50) was found to be 0.562 µM in experiment [2]; 0.632 µM in experiment [3] (Table 3a); 0.632 µM in experiment [3] (Table 3b); 2.68 µM in experiment [4] (Table 3a); 2.68 µM in experiment [4] (Table 3b).

For the compound `CN1CC2(C1)CN(c1ccc(Nc3ncc4cc(C(=O)N(C)C)n(C56CC(C5)C6)c4n3)cc1)C2` [Compound A69, 7-(bicyclo[1.1.1]pentan-1-yl)-N,N-dimethyl-2-((4-(6-methyl-2,6-diazaspiro[3.3]heptan-2-yl)phenyl)amino)-7H-pyrrolo[2,3-d]pyrimidine-6-carboxamide], the IC50 in experiment [1] (Table 3a) was 0.014 µM; in experiment [1] (Table 3b), 0.014 µM; in experiment [2] it was 1.83 µM; in experiment [3] (Table 3a), 1.47 µM; in experiment [3] (Table 3b), 1.47 µM; in experiment [4] (Table 3a), greater than 10 µM. In addition, the IC50 in experiment [4] (Table 3b) was greater than 10 µM; in experiment [5] (Table 3a) it was 0.0051 µM.

As for `CN1CC2(C1)CN(c1ccc(Nc3ncc4cc(C(=O)N(C)C)n(C56CC(C5)C6)c4n3)cc1F)C2` [Compound A70, 7-(bicyclo[1.1.1]pentan-1-yl)-2-((3-fluoro-4-(6-methyl-2,6-diazaspiro[3.3]heptan-2-yl)phenyl)amino)-N,N-dimethyl-7H-pyrrolo[2,3-d]pyrimidine-6-carboxamide], the IC50 turned out to be 0.0159 µM in experiment [1] (Table 3a); 0.0159 µM in experiment [1] (Table 3b); 0.732 µM in experiment [2]; 0.631 µM in experiment [3] (Table 3a); 0.631 µM in experiment [3] (Table 3b); 5.01 µM in experiment [4] (Table 3a). For the same compound, the IC50 in experiment [4] (Table 3b) turned out to be 5.01 µM; in experiment [5] (Table 3a), 0.00476 µM.

Regarding `CN(C)C(=O)c1cc2cnc(Nc3ccc(N4CCN(CCO)CC4)c(F)c3)nc2n1C12CC(C1)C2` [Compound A74, 7-(bicyclo[1.1.1]pentan-1-yl)-2-((3-fluoro-4-(4-(2-hydroxyethyl)piperazin-1-yl)phenyl)amino)-N,N-dimethyl-7H-pyrrolo[2,3-d]pyrimidine-6-carboxamide], the IC50 in experiment [1] (Table 3a) is less than 0.0032 µM; in experiment [1] (Table 3b) it was less than 0.0032 µM; in experiment [2], 0.25 µM; in experiment [3] (Table 3a), 0.245 µM; in experiment [3] (Table 3b), 0.245 µM; in experiment [4] (Table 3a) it was 0.938 µM. The IC50 in experiment [4] (Table 3b) is 0.938 µM; in experiment [5] (Table 3a) it was less than 0.0032 µM; in experiment [5] (Table 3b), less than 0.0032 µM.

As for `CN(C)C(=O)c1cc2cnc(Nc3ccc(S(C)(=O)=O)cc3)nc2n1C12CC(C1)C2` [Compound A79, 7-(bicyclo[1.1.1]pentan-1-yl)-N,N-dimethyl-2-((4-(methylsulfonyl)phenyl)amino)-7H-pyrrolo[2,3-d]pyrimidine-6-carboxamide], the IC50 in experiment [1] (Table 3a) was 0.036 µM; in experiment [1] (Table 3b), 0.036 µM; in experiment [2], 0.0971 µM; in experiment [3] (Table 3a) it was 0.0302 µM; in experiment [3] (Table 3b) it was 0.0302 µM; in experiment [4] (Table 3a), greater than 10 µM. The IC50 in experiment [4] (Table 3b) is greater than 10 µM; in experiment [5] (Table 3a), less than 0.0032 µM; in experiment [5] (Table 3b), less than 0.0032 µM.

Regarding `CN(C)C(=O)c1cc2cnc(Nc3ccc(N4CCNCC4)cc3)nc2n1C12CC(C1)C2` [Compound A83, 7-(bicyclo[1.1.1]pentan-1-yl)-N,N-dimethyl-2-((4-(piperazin-1-yl)phenyl)amino)-7H-pyrrolo[2,3-d]pyrimidine-6-carboxamide], the 50% inhibitory concentration (IC50) in experiment [1] (Table 3a) is 0.00675 µM; in experiment [1] (Table 3b) it was 0.00675 µM; in experiment [3] (Table 3a) it was 0.289 µM; in experiment [3] (Table 3b), 0.289 µM; in experiment [6] (Table 3a) it was 0.015 µM; in experiment [6] (Table 3b) it was 0.015 µM. For the same compound, the IC50 in experiment [4] (Table 3a) turned out to be 3.41 µM; in experiment [4] (Table 3b) it was 3.41 µM; in experiment [5] (Table 3a), 0.0127 µM.

For the compound `CN1CCN(c2ccc(Nc3ncc4cc(C(=O)N(C)C)n(C56CC(C5)C6)c4n3)cc2)CC1` [Compound A84, 7-(bicyclo[1.1.1]pentan-1-yl)-N,N-dimethyl-2-((4-(4-methylpiperazin-1-yl)phenyl)amino)-7H-pyrrolo[2,3-d]pyrimidine-6-carboxamide], the IC50 in experiment [1] (Table 3a) came out at 0.00244 µM; in experiment [1] (Table 3b) it was 0.00244 µM; in experiment [3] (Table 3a), 0.185 µM; in experiment [3] (Table 3b) it was 0.185 µM; in experiment [6] (Table 3a), 0.0061 µM; in experiment [6] (Table 3b), 0.0061 µM. Further, the IC50 in experiment [4] (Table 3a) is 1.43 µM; in experiment [4] (Table 3b), 1.43 µM; in experiment [5] (Table 3a), 0.00584 µM; in experiment [5] (Table 3b), 0.00584 µM.

In the case of `CN(C)C(=O)c1cc2cnc(Nc3ccc(N4CCNCC4)cn3)nc2n1C12CC(C1)C2` [Compound A86, 7-(bicyclo[1.1.1]pentan-1-yl)-N,N-dimethyl-2-((5-(piperazin-1-yl)pyridin-2-yl)amino)-7H-pyrrolo[2,3-d]pyrimidine-6-carboxamide], the half-inhibitory concentration (IC50) in experiment [1] (Table 3a) came out at 0.016 µM; in experiment [1] (Table 3b), 0.016 µM; in experiment [3] (Table 3a), 18.9 µM; in experiment [3] (Table 3b), 18.9 µM; in experiment [6] (Table 3a) it was 0.0201 µM; in experiment [6] (Table 3b) it was 0.0201 µM. The IC50 in experiment [4] (Table 3a) was found to be 27.4 µM; in experiment [4] (Table 3b) it was 27.4 µM; in experiment [5] (Table 3a), 0.67 µM.

As to `CN(C)C(=O)c1cc2cnc(Nc3ccc(C4=CCNCC4)cn3)nc2n1C12CC(C1)C2` [Compound A87, 7-(bicyclo[1.1.1]pentan-1-yl)-N,N-dimethyl-2-((1′,2′,3′,6′-tetrahydro-[3,4′-bipyridin]-6-yl)amino)-7H-pyrrolo[2,3-d]pyrimidine-6-carboxamide], the half-inhibitory concentration (IC50) in experiment [1] (Table 3a) was found to be 0.0252 µM; in experiment [1] (Table 3b), 0.0252 µM; in experiment [3] (Table 3a), 50 µM; in experiment [3] (Table 3b) it was 50 µM; in experiment [6] (Table 3a), 0.02 µM; in experiment [6] (Table 3b) it was 0.02 µM. Further, the values for the 50% inhibitory concentration (IC50) in experiment [4] (Table 3a), in experiment [4] (Table 3b) and in experiment [5] (Table 3a) were greater than 100 µM, greater than 100 µM and 0.553 µM, respectively.

With `CN1CCN(c2ccc(Nc3ncc4cc(C(=O)N(C)C)n(C56CC(C5)C6)c4n3)cc2)CC1` [Compound A88, 7-(bicyclo[1.1.1]pentan-1-yl)-N,N-dimethyl-2-((4-(4-methylpiperazin-1-yl)phenyl)amino)-7H-pyrrolo[2,3-d]pyrimidine-6-carboxamide dihydrogen chloride], the IC50 in experiment [1] (Table 3a) is less than 0.0032 µM; in experiment [1] (Table 3b), less than 0.0032 µM; in experiment [2], 0.379 µM; in experiment [3] (Table 3a) it was 0.354 µM; in experiment [3] (Table 3b), 0.354 µM; in experiment [4] (Table 3a) it was 1.65 µM. For the same compound, the IC50 was determined as 1.65 µM in experiment [4] (Table 3b), 0.0051 µM in experiment [5] (Table 3a) and 0.0051 µM in experiment [5] (Table 3b).

On to `CC1CN(c2ccc(Nc3ncc4cc(C(=O)N(C)C)n(C56CC(C5)C6)c4n3)cc2)CC(C)N1` (stereo not shown) [Compound A90, 7-(bicyclo[1.1.1]pentan-1-yl)-2-((4-(3,5-dimethylpiperazin-1-yl)phenyl)amino)-N,N-dimethyl-7H-pyrrolo[2,3-d]pyrimidine-6-carboxamide], for which the half-maximal inhibitory concentration (IC50) stood at 0.0111 µM in experiment [1] (Table 3a); 0.0111 µM in experiment [1] (Table 3b); 1.15 µM in experiment [2]; 0.913 µM in experiment [3] (Table 3a); 0.913 µM in experiment [3] (Table 3b); 5.61 µM in experiment [4] (Table 3a). For the same compound, the 50% inhibitory concentration (IC50) in experiment [4] (Table 3b) was 5.61 µM; in experiment [5] (Table 3a) it was 0.00926 µM.

Values taken from patent publication US20220056037A1 (SPV THERAPEUTICS INC., priority 2018, published 2022).
